# Assay results as given in US11202792B2, “CD99 inhibitors and their uses” (GEORGETOWN UNIVERSITY, priority 2016, dated 2021).
# Tests used:
# MG63 OS cells = test: Cell viability IC50, MG63; assay type: cell-based; details: Homo sapiens, MG-63
# Protocol: (§1) The plate was installed into the RTCA system, and the electrical impedance (represented as cell index) was measured every 10 min.
# (§2) To investigate the relationship between the level of CD99 expression and drug sensitivity, the endogenous expression of CD99 was determined in a panel of 9 ES and 13 non-ES cell lines. The recombinant purified CD99-ECD protein was used to generate standard curves for immunoquantification of CD99 expression by immunoblotting (FIGS. 6B and 6C).
# ES cell lines = test: Cell viability IC50 panel (WST-1 or MTT), ES cell lines; assay type: cell-based, human; details: for IC50: Homo sapiens, 48 h, read-out: average IC50 concentration for ES cell lines; for IC50 concentrations, ES cell lines: all ES cell lines except A673; for increased sensitivity of ES compared to non-ES cell lines: ratio of average IC50 non-ES vs ES
# IOR/OS9 OS cells = test: Cell viability IC50, IOR/OS9; assay type: cell-based; details: Homo sapiens
# Protocol: as §1, §2
# [1] = tested on: RH4 rhabdomyosarcoma cells; test: Cell viability IC50, RH4; assay type: cell-based; details: Homo sapiens, RH4 (RM)
# Protocol: as §1, §2
# IOR/CAR ES cells = test: Cell viability IC50, IOR/CAR; assay type: cell-based; details: Homo sapiens
# Protocol: as §1, §2
# [2] = molecular target: T1, CD99 homodimers in STA-ET-7.2 ES cells (Homo sapiens, UniProt P14209); test: Chemical cross-linking with BS3, CD99 homodimer formation; assay type: cell-based; details: 5 μmol/L, 1 h, then 1 mmol/L BS3; STA-ET-7.2 cells
# T1 construct: STA-ET-7.2 ES cells, which express the highest level of CD99 protein among all ES cell lines; endogenous in cells; host or cells: STA-ET-7.2
# Protocol: The cells were rinsed 3 times with ice-cold PBS, and treated with 1 mmol/L BS^3 (Thermo Scientific) in PBS for 10 min at 37° C. according to manufacturer's instructions. […] Protein samples were then prepared by lysing the cross-linked cells in a lysis buffer as described above.
# To address this, in a chemical cross-linking assay, STA-ET-7.2 ES cells were preincubated with the inhibitors for 1 h at a final concentration of 5 μmol/L followed by the addition of 1 mmol/L BS^3, a membrane-impermeable chemical cross-linking agent.
# [3] = molecular target: T2, recombinant human full-length CD99 (Homo sapiens, UniProt P14209); test: SPR binding kinetics, recombinant human full-length CD99 (Biacore T200); details: full-length CD99 produced in HEK293 cells, immobilized by amine coupling
# T2 construct: Purified recombinant human full-length CD99 produced in HEK293 cells was purchased from Origene; purchased Origene #TP304056; host or cells: HEK293
# T2 sequence (P14209 23-185): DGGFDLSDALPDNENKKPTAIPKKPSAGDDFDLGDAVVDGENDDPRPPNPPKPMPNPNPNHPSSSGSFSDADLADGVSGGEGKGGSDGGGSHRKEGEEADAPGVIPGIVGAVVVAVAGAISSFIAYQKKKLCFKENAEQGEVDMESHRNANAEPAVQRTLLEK
# Protocol: The initial binding screening of the NCI/DTP chemical libraries was performed on a Biacore T200 instrument at room temperature using a neutravidin-coated CM5 chip (GE Healthcare Bio-Sciences) coupled with biotinylated CD99-ECD on one flow cell at levels of ˜3,000 response units (RU). A negative control protein, Ly6k was immobilized on another flow cell of the same chip (˜11,000 RU), and the first flow cell was left empty for reference subtraction due to nonspecific binding. Analytes were diluted in HBS—P buffer [10 mmol/L HEPES, pH 7.4, 150 mmol/L NaCl, % 0.05 (v/v) surfactant P20], and were injected individually over all flow cells. The running buffer contained appropriate concentrations of DMSO in HBS—P to match the DMSO level of the samples. Kinetic studies for antibody- or compound-CD99 interactions were performed in a Biacore T200 instrument. Purified recombinant human full-length CD99 produced in HEK293 cells was purchased from Origene (Rockville, Md.) (#TP304056). The recombinant human full-length CD99 was immobilized on a CM5 sensor chip by the amine-coupling method in sodium acetate buffer, pH 4.0 (˜10,000 RU). The first flow cell was left empty for background signal subtraction. Kinetic characterization of the interactions was done by injecting increasing concentrations of analytes as indicated over CD99-captured and control surface. KD (equilibrium dissociation constant) values were obtained using BiaEvaluation software (version 1.0) (Biacore) (GE Healthcare). All kinetic experiments were conducted in HBS—P buffer, which contained 1% (v/v) DMSO in case of compounds.
# 6647 ES cells = test: Cell viability IC50, 6647; assay type: cell-based; details: Homo sapiens
# Protocol: as §1, §2
# SKES xenografts = test: Orthotopic SKES xenograft, i.p. administration; assay type: in vivo, SCID/beige mice; details: for tumor growth: i.p.
# Protocol: All tumor tissues were fixed in 10% neutral buffered formalin for 24 h, dehydrated through a graded series of alcohols and cleared in xylenes prior to embedding in paraffin. Embedded tissues were cut into 5 μm thick sections and stained with hematoxylin and eosin (H&E). Immunohistochemical staining was performed for CD99 and caspase 3 (cleaved). Five micron sections from formalin fixed paraffin embedded tissues were de-paraffinized with xylenes and rehydrated through a graded alcohol series. Heat induced epitope retrieval was performed by immersing the tissue sections at 98° C. for 60 min in 10 mmol/L citrate buffer (pH 6.0). Immunohistochemical staining was performed using a horseradish peroxidase labeled polymer from Agilent (Santa Clara, Calif.) (#K4001, #K4003) according to manufacturer's instructions. Briefly, slides were treated with 3% hydrogen peroxide and 10% normal goat serum for 10 min each, and exposed to primary antibodies for CD99 (Abcam, #ab8855) at a 1:100 dilution and for caspase 3 (cleaved) (Biocare (Pacheco, Calif.), #CP229A) at a 1:90 dilution in Da Vinci Green for one hour and stained on an DAKO Autostainer. Slides were exposed to the appropriate HRP labeled polymer for 30 min and DAB chromogen (Dako (Santa Clara, Calif.) for 5 min. Slides were counterstained with Hematoxylin (Fisher, Harris Modified Hematoxylin), blued in 1% ammonium hydroxide, dehydrated, and mounted with Acrymount. Consecutive sections with the primary antibody omitted were used as negative controls. The sections were evaluated in a blinded fashion by a board certified pathologist.
# The antitumor activity of drugs through intraperitoneal (i.p.) administration given once daily was determined. […] The in vivo potencies of drug treatments were evaluated by event-free survival curves, where tumors that reached 1.0 cm^3 in size considered an event.
# [4] = tested on: RH30 rhabdomyosarcoma cells; test: Cell viability IC50, RH30; assay type: cell-based; details: Homo sapiens; RH30 (RM)
# Protocol: as §1, §2
# non-ES cell lines = test: Cell viability IC50 panel, non-ES cell lines; assay type: cell-based; details: 48 h; highest concentration tested (10 or 30 μmol/L) used for resistant lines; unit not printed with values
# Protocol: as §1
# Therefore, two leukemia cell lines, MOLT-4 and Jurkat, were included as positive controls in this experiment.
# U-2-OS OS cells = test: Cell viability IC50, U-2-OS; assay type: cell-based; details: Homo sapiens, U2OS
# Protocol: as §1, §2
# [5] = tested on: RH1 rhabdomyosarcoma cells; test: Cell viability IC50, RH1; assay type: cell-based; details: Homo sapiens, RH1 (RM)
# Protocol: as §1, §2
Structure (SMILES),IC50 (MG63 OS cells) [µM],IC50 (ES cell lines) [µM],"IC50 concentrations, ES cell lines (ES cell lines)",increased sensitivity of ES compared to non-ES cell lines (ES cell lines) [fold],IC50 (IOR/OS9 OS cells) [µM],IC50 [1] [µM],IC50 (IOR/CAR ES cells) [µM],formation of CD99 homodimers [2],Kd [3] [µM],IC50 (6647 ES cells) [µM],tumor growth (SKES xenografts; 20 mg/kg both),IC50 [4] [µM],IC50 (non-ES cell lines) [µM],IC50 (U-2-OS OS cells) [µM],IC50 [5] [µM],"mitotic figures per field (SKES xenografts; H&E, 200-fold magnification)","apoptotic cells (SKES xenografts; H&E, confirmed by caspase-3 immunohistochemistry)","event-free survival (SKES xenografts; i.p. once daily, 20 mg/kg both, vs vehicle)"
Nc1nc(Cl)nc2c1ncn2[C@H]1C[C@H](O)[C@@H](CO)O1 [cladribine],> 30,1.09 ± 1.85,submicromolar,18,> 30,> 30,0.66,significantly reduced,3.8 ± 3.3,0.71,less effective,3.26,≥ 20.1,> 30,0.9,–,–,–
Nc1nc(Cl)nc2c1ncn2[C@@H]1O[C@H](CO)[C@@H](O)[C@@H]1F [clofarabine],> 10,0.44 ± 0.44,submicromolar,31,> 10,> 10,0.29,blocked,5.3 ± 3.2,0.34,significant inhibition of tumor growth,> 10,≥ 13.7,> 30,0.2,≤ 3,significant increase,significantly improved
